The IC50 is the concentration needed to halve the response being measured.

In US10745382B2 (BRISTOL-MYERS SQUIBB COMPANY, priority 2015, dated 2020) one finds IC50 data, which are given here for 20 compounds.

The target in one assay is T1, PD-1/PD-L1 (Homo sapiens, UniProt Q9NZQ7).
T1 construct: made in house; host or cells: HEK293T
T1 sequence (Q9NZQ7 with tags, fused parts or gaps): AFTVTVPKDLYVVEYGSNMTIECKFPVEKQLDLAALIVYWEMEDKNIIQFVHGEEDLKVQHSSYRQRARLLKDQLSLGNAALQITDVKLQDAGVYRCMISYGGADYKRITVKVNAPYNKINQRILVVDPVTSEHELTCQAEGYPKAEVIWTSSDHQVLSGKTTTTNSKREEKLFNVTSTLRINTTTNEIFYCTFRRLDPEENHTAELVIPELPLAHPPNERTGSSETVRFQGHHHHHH
Put plainly: PD-1/PD-L1 Homogenous Time-Resolved Fluorescence (HTRF) binding assay. As to conditions: PD-L1-His 10 nM, PD-1-Ig 20 nM; numeric IC50; read-out: Range or IC50. The gist of the method:
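Additional pairs run were PD-1-Ig with PD-L2-His (20 & 5 nM) and CD80-His with PD-L1-Ig (100 & 10 nM), all human proteins. Buffer: dPBS plus 0.1% BSA, 0.05% Tween-20; time-resolved FRET read-out via 1 nM Eu-cryptate anti-Ig and 20 nM APC anti-His, final concentrations.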
On the technique in general: Time-resolved FRET reads energy transfer from a long-lived donor to a nearby acceptor.
On to `Cc1c(COc2cc(OCc3cncc(C#N)c3)c(CN(C)C(CO)(CO)CO)cc2Cl)cccc1-c1cccc(OCCCN2CCC(F)(F)C2)c1C` [Example 4121, 5-((4-chloro-5-((3′-(3-(3,3-difluoropyrrolidin-1-yl)propoxy)-2,2′-dimethyl-[1,1′-biphenyl]-3-yl)methoxy)-2-(((1,3-dihydroxy-2-(hydroxymethyl)propan-2-yl)(methyl)amino)methyl)phenoxy)methyl)nicotinonitrile], for which the IC50 was 0.5 nM.
Still for that read-out and setting: the result for `Cc1c(COc2cc(OCc3cncc(C#N)c3)c(C(C)NC(CO)CO)cc2Cl)cccc1-c1cccc(OCCCN2CC[C@@H](O)C2)c1C` (stereo partly drawn) [Example 4137, 5-((4-chloro-2-(1-((1,3-dihydroxypropan-2-yl)amino)ethyl)-5-((3′-(3-((R)-3-hydroxypyrrolidin-1-yl)propoxy)-2,2′-dimethyl-[1,1′-biphenyl]-3-yl)methoxy)phenoxy)methyl)nicotinonitrile] reads 3 nM.

The same assay, now with this note: PD-L1-His 10 nM, PD-1-Ig 20 nM; value given as range class; read-out: Range or IC50.
`Cc1c(COc2cc(OCc3cncc(C#N)c3)c(CNC(CO)(CO)CO)cc2Cl)cccc1-c1cccc(OCCCN2CCC(F)(F)C2)c1C` [Example 4118, 5-((4-chloro-5-((3′-(3-(3,3-difluoropyrrolidin-1-yl)propoxy)-2,2′-dimethyl-[1,1′-biphenyl]-3-yl)methoxy)-2-(((1,3-dihydroxy-2-(hydroxymethyl)propan-2-yl)amino)methyl)phenoxy)methyl)nicotinonitrile]: the IC50 is 0.21 to 10 nM.
`Cc1c(COc2cc(OCc3cncc(C#N)c3)c(CN[C@@](C)(CO)C(=O)O)cc2Cl)cccc1-c1cccc(OCCCN2CCC(F)(F)C2)c1C` [Example 4119, (S)-2-((5-chloro-2-((5-cyanopyridin-3-yl)methoxy)-4-((3′-(3-(3,3-difluoropyrrolidin-1-yl)propoxy)-2,2′-dimethyl-[1,1′-biphenyl]-3-yl)methoxy)benzyl)amino)-3-hydroxy-2-methylpropanoic Acid]: the IC50 lay in the range of 0.21 to 10 nM.
On the same count and under the same terms, in the case of `Cc1c(COc2cc(OCc3cncc(C#N)c3)c(CN(C)C(CO)CO)cc2Cl)cccc1-c1cccc(OCCCN2CCC(F)(F)C2)c1C` [Example 4120, 5-((4-chloro-5-((3′-(3-(3,3-difluoropyrrolidin-1-yl)propoxy)-2,2′-dimethyl-[1,1′-biphenyl]-3-yl)methoxy)-2-(((1,3-dihydroxypropan-2-yl)(methyl)amino)methyl)phenoxy)methyl)nicotinonitrile] it was 0.21 to 10 nM; in that of `Cc1c(COCCN2CC[C@@H](O)C2)cccc1-c1cccc(COc2cc(OCc3cncc(C#N)c3)c(CNC(CO)CO)cc2Cl)c1C` [Example 4122, (R)-5-((4-chloro-2-(((1,3-dihydroxypropan-2-yl)amino)methyl)-5-((3′-((2-(3-hydroxypyrrolidin-1-yl)ethoxy)methyl)-2,2′-dimethyl-[1,1′-biphenyl]-3-yl)methoxy)phenoxy)methyl)nicotinonitrile], 0.21 to 10 nM.
Same read-out and setting: in the case of `Cc1c(COCCN2CC[C@@H](O)C2)cccc1-c1cccc(COc2cc(OCc3cncc(C#N)c3)c(CN[C@@](C)(CO)C(=O)O)cc2Cl)c1C` [Example 4123, (S)-2-((5-chloro-2-((5-cyanopyridin-3-yl)methoxy)-4-((3′-((2-((R)-3-hydroxypyrrolidin-1-yl)ethoxy)methyl)-2,2′-dimethyl-[1,1′-biphenyl]-3-yl)methoxy)benzyl)amino)-3-hydroxy-2-methylpropanoic Acid] it was 0.21 to 10 nM; in that of `Cc1c(COCCN2CC[C@@H](O)C2)cccc1-c1cccc(COc2cc(OCc3cncc(C#N)c3)c(CNC3(C(=O)O)CC3)cc2Cl)c1C` [Example 4124, (R)-1-((5-chloro-2-((5-cyanopyridin-3-yl)methoxy)-4-((3′-((2-(3-hydroxypyrrolidin-1-yl)ethoxy)methyl)-2,2′-dimethyl-[1,1′-biphenyl]-3-yl)methoxy)benzyl)amino)cyclopropane-1-carboxylic Acid], 0.21 to 10 nM; in that of `Cc1c(COCCN2CC[C@@H](O)C2)cccc1-c1cccc(COc2cc(OCc3cncc(C#N)c3)c(CNC(CO)(CO)CO)cc2Cl)c1C` [Example 4125, (R)-5-((4-chloro-2-(((1,3-dihydroxy-2-(hydroxymethyl)propan-2-yl)amino)methyl)-5-((3′-((2-(3-hydroxypyrrolidin-1-yl)ethoxy)methyl)-2,2′-dimethyl-[1,1′-biphenyl]-3-yl)methoxy)phenoxy)methyl)nicotinonitrile], 0.21 to 10 nM.
As to `Cc1c(COCCN2CC[C@@H](O)C2)cccc1-c1cccc(COc2cc(OCc3cncc(C#N)c3)c(CN3CCCC[C@H]3C(=O)O)cc2Cl)c1C` [Example 4126, (S)-1-(5-chloro-2-((5-cyanopyridin-3-yl)methoxy)-4-((3′-((2-((R)-3-hydroxypyrrolidin-1-yl)ethoxy)methyl)-2,2′-dimethyl-[1,1′-biphenyl]-3-yl)methoxy)benzyl)piperidine-2-carboxylic Acid], the IC50 is 0.21 to 10 nM.
With `Cc1c(COCCN2CC[C@@H](O)C2)cccc1-c1cccc(COc2cc(OCc3cncc(C#N)c3)c(CN(C)C(CO)CO)cc2Cl)c1C` [Example 4127, (R)-5-((4-chloro-2-(((1,3-dihydroxypropan-2-yl)(methyl)amino)methyl)-5-((3′-((2-(3-hydroxypyrrolidin-1-yl)ethoxy)methyl)-2,2′-dimethyl-[1,1′-biphenyl]-3-yl)methoxy)phenoxy)methyl)nicotinonitrile], the IC50 was in the range of 0.21 to 10 nM.
On the same count and under the same terms, the result for `Cc1c(COCCN2CC[C@@H](O)C2)cccc1-c1cccc(COc2cc(OCc3cncc(C#N)c3)c(CN(C)C(C)(CO)CO)cc2Cl)c1C` [Example 4128, (R)-5-((4-chloro-2-(((1,3-dihydroxy-2-methylpropan-2-yl)(methyl)amino)methyl)-5-((3′-((2-(3-hydroxypyrrolidin-1-yl)ethoxy)methyl)-2,2′-dimethyl-[1,1′-biphenyl]-3-yl)methoxy)phenoxy)methyl)nicotinonitrile] reads 0.21 to 10 nM; that for `Cc1c(COCCN2CC[C@@H](O)C2)cccc1-c1cccc(COc2cc(OCc3cncc(C#N)c3)c(CN(C)C3(C(=O)O)CC3)cc2Cl)c1C` [Example 4129, (R)-1-((5-chloro-2-((5-cyanopyridin-3-yl)methoxy)-4-((3′-((2-(3-hydroxypyrrolidin-1-yl)ethoxy)methyl)-2,2′-dimethyl-[1,1′-biphenyl]-3-yl)methoxy)benzyl)(methyl)amino)cyclopropane-1-carboxylic Acid], 0.21 to 10 nM.
Take `Cc1c(COCCN2CC[C@@H](O)C2)cccc1-c1cccc(COc2cc(OCc3cncc(C#N)c3)c(CN(C)[C@@H](CO)C(=O)O)cc2Cl)c1C` [Example 4130, N-(5-chloro-2-((5-cyanopyridin-3-yl)methoxy)-4-((3′-((2-((R)-3-hydroxypyrrolidin-1-yl)ethoxy)methyl)-2,2′-dimethyl-[1,1′-biphenyl]-3-yl)methoxy)benzyl)-N-methyl-L-serine]: the IC50 lay in the range of 0.21 to 10 nM.
Still for that read-out and setting: in the case of `Cc1c(COCCN2CC[C@@H](O)C2)cccc1-c1cccc(COc2cc(OCc3cncc(C#N)c3)c(CNC(C)(CO)CO)cc2Cl)c1C` [Example 4131, (R)-5-((4-chloro-2-(((1,3-dihydroxy-2-methylpropan-2-yl)amino)methyl)-5-((3′-((2-(3-hydroxypyrrolidin-1-yl)ethoxy)methyl)-2,2′-dimethyl-[1,1′-biphenyl]-3-yl)methoxy)phenoxy)methyl)nicotinonitrile] it was 0.21 to 10 nM.
In the case of `Cc1c(COc2cc(OCc3cncc(C#N)c3)c(CN(C)[C@@H](C)C(=O)O)cc2Cl)cccc1-c1cccc(OCCCN2CC[C@@H](O)C2)c1C` [Example 4132, N-(5-chloro-2-((5-cyanopyridin-3-yl)methoxy)-4-((3′-(3 ((R)-3-hydroxypyrrolidin-1-yl)propoxy)-2,2′-dimethyl-[1,1′-biphenyl]-3-yl)methoxy)benzyl)-N-methyl-L-alanine], the IC50 was in the range of 0.21 to 10 nM.
The same measure, in the same setting: in the case of `CC[C@@H](C(=O)O)N(C)Cc1cc(Cl)c(OCc2cccc(-c3cccc(OCCCN4CC[C@@H](O)C4)c3C)c2C)cc1OCc1cncc(C#N)c1` [Example 4133, (S)-2-((5-chloro-2-((5-cyanopyridin-3-yl)methoxy)-4-((3′-(3-((R)-3-hydroxypyrrolidin-1-yl)propoxy)-2,2′-dimethyl-[1,1′-biphenyl]-3-yl)methoxy)benzyl)(methyl)amino)butanoic Acid] it was 0.21 to 10 nM.
As to `Cc1c(COc2cc(OCc3cncc(C#N)c3)c(CN(C)C3(C(=O)O)CC3)cc2Cl)cccc1-c1cccc(OCCCN2CC[C@@H](O)C2)c1C` [Example 4134, (R)-1-((5-chloro-2-((5-cyanopyridin-3-yl)methoxy)-4-((3′-(3-(3-hydroxypyrrolidin-1-yl)propoxy)-2,2′-dimethyl-[1,1′-biphenyl]-3-yl)methoxy)benzyl)(methyl)amino)cyclopropane-1-carboxylic Acid], the half-maximal inhibitory concentration (IC50) lay within 0.21 to 10 nM.
On to `Cc1c(COc2cc(OCc3cncc(C#N)c3)c(CN(C)[C@@H](CCO)C(=O)O)cc2Cl)cccc1-c1cccc(OCCCN2CC[C@@H](O)C2)c1C` [Example 4135, N-(5-chloro-2-((5-cyanopyridin-3-yl)methoxy)-4-((3′-(3-((R)-3-hydroxypyrrolidin-1-yl)propoxy)-2,2′-dimethyl-[1,1′-biphenyl]-3-yl)methoxy)benzyl)-N-methyl-L-homoserine], for which the IC50 lay in the range of 0.21 to 10 nM.
As to `Cc1c(COc2cc(OCc3cncc(C#N)c3)c(CN(C)[C@@H](CO)C(=O)O)cc2Cl)cccc1-c1cccc(OCCCN2CC[C@@H](O)C2)c1C` [Example 4136, N-(5-chloro-2-((5-cyanopyridin-3-yl)methoxy)-4-((3′-(3-((R)-3-hydroxypyrrolidin-1-yl)propoxy)-2,2′-dimethyl-[1,1′-biphenyl]-3-yl)methoxy)benzyl)-N-methyl-L-serine], the IC50 lay in the range of 0.21 to 10 nM.
